Measurements as given in the NIST ThermoML archive (doi:10.1016/j.jct.2006.09.001).
Values joined by “and” are separate entries in the source; they are usually repeats but may differ in a detail not shown here. Equal entries are not always repeated. Numbers after ± are expanded uncertainties.

Columns and labels:
[1] = Molar enthalpy of transition or fusion; conditions: Crystal; DSC
[2] = for Normal melting temperature: DTA

OC[c-]1cccc1.[Fe+2].c1cc[cH-]c1 [(hydroxymethyl)ferrocene]
Conditions	Molar enthalpy of transition or fusion [kJ/mol]
[1]	23.7 ± 0.8

[2]
Conditions	vapor or sublimation pressure
313.3 K, Crystal	0.00011 ± 1e-05 kPa
316.7 K, Crystal	0.00015 ± 2e-05 kPa
320.4 K, Crystal	0.00025 ± 3e-05 kPa
323.3 K, Crystal	0.00036 ± 4e-05 kPa
327.3 K, Crystal	0.00056 ± 6e-05 kPa
330.4 K, Crystal	0.00079 ± 8e-05 kPa and 0.00078 ± 8e-05 kPa
333.7 K, Crystal	0.00116 ± 0.00012 kPa
333.8 K, Crystal	0.00111 ± 0.00011 kPa
335.9 K, Crystal	0.0015 ± 0.00015 kPa
336.2 K, Crystal	0.00149 ± 0.00015 kPa
339.8 K, Crystal	0.00218 ± 0.00022 kPa
341.1 K, Crystal	0.00254 ± 0.00026 kPa
342 K, Crystal	0.0029 ± 0.0003 kPa
343.3 K, Crystal	0.00329 ± 0.00034 kPa
346 K, Crystal	0.00416 ± 0.00042 kPa
347.3 K, Crystal	0.00468 ± 0.00048 kPa
347.4 K, Crystal	0.00492 ± 0.0005 kPa
353.2 K, Liquid	0.00788 ± 0.0008 kPa
355.2 K, Liquid	0.00938 ± 0.00095 kPa
357.3 K, Liquid	0.0104 ± 0.001 kPa
358.9 K, Liquid	0.01181 ± 0.0012 kPa
359.6 K, Liquid	0.01286 ± 0.0013 kPa
361.6 K, Liquid	0.01452 ± 0.0015 kPa
363.4 K, Liquid	0.01668 ± 0.0017 kPa
364.7 K, Liquid	0.01879 ± 0.0019 kPa
366.1 K, Liquid	0.02236 ± 0.0023 kPa
366.5 K, Liquid	0.02159 ± 0.0022 kPa
368.9 K, Liquid	0.02708 ± 0.0027 kPa
369 K, Liquid	0.02499 ± 0.0025 kPa
370.5 K, Liquid	0.02709 ± 0.0027 kPa
371.8 K, Liquid	0.03178 ± 0.0032 kPa
372.5 K, Liquid	0.03208 ± 0.0033 kPa
374 K, Liquid	0.03745 ± 0.0038 kPa
375.6 K, Liquid	0.03813 ± 0.0039 kPa
377 K, Liquid	0.04507 ± 0.0046 kPa
379.7 K, Liquid	0.05509 ± 0.0056 kPa
383.7 K, Liquid	0.06949 ± 0.007 kPa
385 K, Liquid	0.07524 ± 0.0076 kPa
386.8 K, Liquid	0.08377 ± 0.0084 kPa
389.6 K, Liquid	0.09595 ± 0.0097 kPa
393.7 K, Liquid	0.1301 ± 0.013 kPa

Conditions	Normal melting temperature [°C]
[2], Crystal	79.1 ± 0.7

[Fe+2].c1cc[cH-]c1.c1ccc(C[c-]2cccc2)cc1 [benzylferrocene]
Conditions	Molar enthalpy of transition or fusion [kJ/mol]
[1]	23.7 ± 0.5

[2], Crystal
Conditions	vapor or sublimation pressure [kPa]
311.7 K	1.2e-05 ± 2e-06
313 K	1.3e-05 ± 2e-06
318 K	2.7e-05 ± 3e-06
323.3 K	5.2e-05 ± 6e-06
325.1 K	6.4e-05 ± 7e-06
325.3 K	6.5e-05 ± 7e-06
327.2 K	8.6e-05 ± 9e-06
331.3 K	0.000132 ± 1.5e-05
331.9 K	0.000152 ± 1.6e-05
333.3 K	0.00017 ± 1.8e-05
335.9 K	0.000236 ± 2.4e-05
338.4 K	0.000303 ± 3.2e-05
338.9 K	0.000323 ± 3.3e-05
341.3 K	0.000442 ± 4.6e-05

[2], Liquid, Transpiration method
Conditions	vapor or sublimation pressure [kPa]
350.7 K	0.00111 ± 6e-05
352.9 K	0.00129 ± 7e-05
356.9 K	0.00181 ± 0.0001
361 K	0.00247 ± 0.00013
365 K	0.00332 ± 0.00017
369 K	0.0046 ± 0.00024
373.1 K	0.00602 ± 0.00031
377.1 K	0.0082 ± 0.00043

Conditions	Normal melting temperature [°C]
[2], Crystal	76.1 ± 0.7

O=C(c1ccccc1)c1ccc[cH-]1.[Fe+2].c1cc[cH-]c1 [benzoylferrocene]
Conditions	Molar enthalpy of transition or fusion [kJ/mol]
[1]	29.9 ± 0.7

[2], Transpiration method
Conditions	vapor or sublimation pressure [kPa]
342.3 K, Crystal	2.2e-05 ± 1e-06
347.2 K, Crystal	3.8e-05 ± 2e-06
350.2 K, Crystal	5.3e-05 ± 3e-06
350.9 K, Crystal	5.8e-05 ± 3e-06
353 K, Crystal	7.5e-05 ± 4e-06
356 K, Crystal	9.7e-05 ± 5e-06
357.8 K, Crystal	0.000123 ± 7e-06
360.3 K, Crystal	0.000164 ± 9e-06
363 K, Crystal	0.00021 ± 1.1e-05
364 K, Crystal	0.000246 ± 1.4e-05
366.4 K, Crystal	0.000313 ± 1.7e-05
370 K, Crystal	0.000441 ± 2.4e-05
371.7 K, Crystal	0.000553 ± 3.1e-05
373.6 K, Crystal	0.000674 ± 3.7e-05
377.3 K, Crystal	0.000963 ± 5.2e-05
379.3 K, Crystal	0.001207 ± 6.5e-05
384 K, Liquid	0.00187 ± 0.0001
386.2 K, Liquid	0.00223 ± 0.00012
389.1 K, Liquid	0.0027 ± 0.00014
392.4 K, Liquid	0.00338 ± 0.00018
396 K, Liquid	0.00428 ± 0.00022
397.9 K, Liquid	0.00488 ± 0.00025
402 K, Liquid	0.00618 ± 0.00035
402.6 K, Liquid	0.00664 ± 0.00034
404.8 K, Liquid	0.00742 ± 0.00039
408.8 K, Liquid	0.00977 ± 0.0005
408.9 K, Liquid	0.00961 ± 0.00049
410.6 K, Liquid	0.01054 ± 0.00054
413.6 K, Liquid	0.01254 ± 0.00065
416.8 K, Liquid	0.01548 ± 0.0008
419.7 K, Liquid	0.01891 ± 0.00097
423.3 K, Liquid	0.02256 ± 0.0012
426.6 K, Liquid	0.02806 ± 0.0014
429.6 K, Liquid	0.03229 ± 0.0016

Conditions	Normal melting temperature [°C]
[2], Crystal	109.5 ± 0.5

[CH]1C=CC=C1.[CH]1C=CC=C1.[Fe] [ferrocene]
Conditions	Molar enthalpy of transition or fusion [kJ/mol]
[1]	18.3 ± 0.6

[2], Crystal, Transpiration method
Conditions	vapor or sublimation pressure
289.7 K	0.00041 ± 3e-05 kPa
299.6 K	0.00116 ± 6e-05 kPa
303.5 K	0.00169 ± 9e-05 kPa
303.6 K	0.00172 ± 9e-05 kPa
307.5 K	0.00249 ± 0.00014 kPa
312.5 K	0.00388 ± 0.00021 kPa
317.6 K	0.00605 ± 0.00033 kPa
322.6 K	0.00945 ± 0.00051 kPa
322.7 K	0.00932 ± 0.0005 kPa
327.6 K	0.014 ± 0.00075 kPa
332.8 K	0.02131 ± 0.0011 kPa and 0.02096 ± 0.0011 kPa
337.9 K	0.03024 ± 0.0016 kPa
342.9 K	0.04379 ± 0.0023 kPa
348 K	0.06337 ± 0.0034 kPa
353.1 K	0.09205 ± 0.0049 kPa
358.3 K	0.1334 ± 0.007 kPa
363.4 K	0.1803 ± 0.0094 kPa

Conditions	Normal melting temperature [°C]
[2], Crystal	174.7 ± 0.5
